ChEMBL document CHEMBL1201862, “PubChem BioAssay data set” (2004)
Calls of active or inactive are those of the source.

What was measured:
[1] = tested on: INS1; test: INS-1E survival protection against cytokine death – cell-based, luminescence, retest, dose response (AID 449756); format: functional; conditions: Rattus norvegicus;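 also: cell death triggered by IL-1 beta plus TNF-alpha plus IFN-gamma mixture; protective hits raise ATP signal compared with cytokine alone wells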
[2] = Vero E6 cell cytotoxicity, dose response, cytotoxicity control for non-replicating M. tuberculosis project, secondary assay (AID 492998); format: functional, VeroE6; conditions: Vero C1008
[3] = biological target: T1, Interleukin-8 (Homo sapiens, UniProt P10145); test: SAR analysis of Tumor necrosis factor alpha (TNF-alpha) induced IL-8 secretion in MCF-7/NOD1 cells - Set 2. [Related pubchem assays (depositor defined):AID1575, AID2250, AID2260]; format: functional, cell-based
T1 sequence (P10145 whole entry): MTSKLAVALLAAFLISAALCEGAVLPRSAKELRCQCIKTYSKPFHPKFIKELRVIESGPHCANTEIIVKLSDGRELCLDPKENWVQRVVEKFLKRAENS

[4] = loss of viability in HepG2 cells – cell-based, CellTiter-Glo, cherry-picked, cytotoxicity control for Shn3 inhibitor project, dose response (AID 624134); format: functional
[5] = biological target: Nucleotide-binding oligomerization domain-containing protein 2 (Homo sapiens, UniProt Q9HC29); test: inhibition of NOD2 signaling – set 2, SAR follow-up (AID 2475); format: functional
[6] = viability loss in HEK293T cells – cell-based, cherry-picks, cytotoxicity control for HIV Vif inhibitor project, dose response (AID 652208); format: functional
[7] = tested on: HEK293; test: SAR analysis of compounds that are cytotoxic to HEK293 - Set 2. [Related pubchem assays (depositor defined):AID1575, AID1578, AID1849, AID2001, AID2333, AID2334, AID2335, AID2337, AID2800]; format: functional, cell-based; conditions: Homo sapiens
[8] = biological target: Beta Lactamase (Pseudomonas aeruginosa, UniProt Q932Y6); test: BLA reporter interference, concentration series – BLA reporter cells, FRET fluorescence, artefact control for TLR9-MyD88 binding inhibitor project, dose response (AID 588341); format: cell-based;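 also: cell based assay in CHO-K1 cells stably expressing beta-lactamase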
[9] = biological target: Glucose-6-phosphate 1-dehydrogenase (Homo sapiens, UniProt P11413); test: inhibition of Homo sapiens G6PD, dose series – biochemical, fluorescence, selectivity assay for P. falciparum G6PD inhibitor project, dose response (AID 504792); format: functional
[10] = non-specific 3'UTR reporter inhibition in Clone20-Shn3RL – cell-based, Renilla luciferase, cherry-picked, counter-screen for Shn3 inhibitor project, dose response (AID 624133); format: functional
[11] = biological target: T2, Nucleotide-binding oligomerization domain-containing protein 1 (Homo sapiens, UniProt Q9Y239); test: SAR analysis of NF-kappaB dependent luciferase using DAP as an inducer - Set 2. [Related pubchem assays (depositor defined):AID1566, AID1575, AID1578, AID1579, AID1849, AID1852, AID2264]; format: functional
T2 sequence (Q9Y239 whole entry): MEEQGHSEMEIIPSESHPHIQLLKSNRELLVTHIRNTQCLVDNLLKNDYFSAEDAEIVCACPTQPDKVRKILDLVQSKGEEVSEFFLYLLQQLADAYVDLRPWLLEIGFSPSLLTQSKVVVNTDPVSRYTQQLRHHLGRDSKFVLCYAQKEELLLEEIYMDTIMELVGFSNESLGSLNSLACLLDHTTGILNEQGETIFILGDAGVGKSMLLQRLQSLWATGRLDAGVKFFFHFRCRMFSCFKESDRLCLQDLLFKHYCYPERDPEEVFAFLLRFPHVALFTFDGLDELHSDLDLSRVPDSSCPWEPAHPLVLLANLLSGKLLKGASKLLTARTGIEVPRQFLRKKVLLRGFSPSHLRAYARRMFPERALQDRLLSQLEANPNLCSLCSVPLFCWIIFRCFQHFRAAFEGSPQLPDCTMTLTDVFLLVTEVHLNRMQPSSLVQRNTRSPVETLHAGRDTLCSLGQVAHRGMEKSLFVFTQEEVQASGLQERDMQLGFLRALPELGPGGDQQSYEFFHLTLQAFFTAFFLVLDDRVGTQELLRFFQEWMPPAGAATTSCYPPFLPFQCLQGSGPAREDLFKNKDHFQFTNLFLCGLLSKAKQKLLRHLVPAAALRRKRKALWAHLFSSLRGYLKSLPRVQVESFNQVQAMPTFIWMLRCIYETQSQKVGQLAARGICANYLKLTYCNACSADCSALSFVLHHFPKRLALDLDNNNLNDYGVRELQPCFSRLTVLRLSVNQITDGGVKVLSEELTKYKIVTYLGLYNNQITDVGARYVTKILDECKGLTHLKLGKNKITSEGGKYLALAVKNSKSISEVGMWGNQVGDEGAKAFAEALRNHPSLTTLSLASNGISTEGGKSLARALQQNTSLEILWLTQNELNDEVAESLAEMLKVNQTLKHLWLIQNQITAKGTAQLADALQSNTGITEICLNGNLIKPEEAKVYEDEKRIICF

[12] = biological target: T2, Nucleotide-binding oligomerization domain-containing protein 1; test: SAR analysis of compounds that inhibit NOD1 - Set 2. [Related pubchem assays (depositor defined):AID1566, AID1575, AID1578, AID1849, AID1852, AID2333, AID2335, AID2798]; format: functional
[13] = biological target: Paired box protein Pax-8 (Homo sapiens, UniProt Q06710); test: PAX8 transcriptional activity inhibition in RMG-I – RMG-I cells, luciferase, cherry-pick, dose response (AID 687027); format: functional, cell-based;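 also: luciferase reporter driven by Pax8 target thyroperoxidase promoter measured by SteadyGlo luminescence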
[14] = THP-1 cell cytotoxicity, dose response, cytotoxicity control for non-replicating M. tuberculosis project (AID 489025); format: functional
[15] = biological target: T1, Interleukin-8; test: SAR analysis of GM-Tri-DAP induced IL-8 secretion in MCF-7/NOD1 cells - Set 2. [Related pubchem assays (depositor defined):AID1575, AID1578, AID2333]; format: functional, cell-based
[16] = reduction of Shn3 3'UTR-driven luciferase in osteoblasts – cell-based, Clone20 osteoblasts, firefly luciferase, cherry-picked, dose response (AID 624132); format: functional;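 also: firefly luciferase luminescence from reporter carrying the Shn3 3'UTR in osteoblasts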
[17] = biological target: Ras and Rab interactor 1/Tyrosine-protein kinase ABL1 (Homo sapiens, UniProt P00519+Q13671); test: biochemical; format: functional;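 also: biochemical TR-FRET dose-response test measuring inhibition of binding between Rin1 and Abl proteins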
[18] = biological target: Transitional endoplasmic reticulum ATPase (Homo sapiens, UniProt P55072, C522A); test: C522A mutant p97 ATPase inhibitors, dose response, counter-screen for p97 inhibitor project, biochemical, luminescence (AID 1544)
[19] = biological target: Transitional endoplasmic reticulum ATPase (Homo sapiens, UniProt P55072); test: p97 ATPase inhibitors, dose response, biochemical (AID 1534)
[20] = biological target: T3, Caspase-6 (Homo sapiens, UniProt P55212); test: inhibition of CASP6 peptide cleavage – biochemical, VEID-R110 fluorescence, cherry-pick, dose response (AID 720632)
T3 sequence (P55212 whole entry): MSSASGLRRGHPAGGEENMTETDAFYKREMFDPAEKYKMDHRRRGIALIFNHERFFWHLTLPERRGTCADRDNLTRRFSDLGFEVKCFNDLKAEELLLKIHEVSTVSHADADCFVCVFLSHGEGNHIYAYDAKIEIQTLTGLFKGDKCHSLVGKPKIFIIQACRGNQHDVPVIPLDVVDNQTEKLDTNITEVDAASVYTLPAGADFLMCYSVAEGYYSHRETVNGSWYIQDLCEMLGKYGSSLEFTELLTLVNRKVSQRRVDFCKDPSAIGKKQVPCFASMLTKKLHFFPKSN

Transitional endoplasmic reticulum ATPase (Homo sapiens, UniProt P55072, C522A), sequence (P55072 2-806 C522A limits assumed): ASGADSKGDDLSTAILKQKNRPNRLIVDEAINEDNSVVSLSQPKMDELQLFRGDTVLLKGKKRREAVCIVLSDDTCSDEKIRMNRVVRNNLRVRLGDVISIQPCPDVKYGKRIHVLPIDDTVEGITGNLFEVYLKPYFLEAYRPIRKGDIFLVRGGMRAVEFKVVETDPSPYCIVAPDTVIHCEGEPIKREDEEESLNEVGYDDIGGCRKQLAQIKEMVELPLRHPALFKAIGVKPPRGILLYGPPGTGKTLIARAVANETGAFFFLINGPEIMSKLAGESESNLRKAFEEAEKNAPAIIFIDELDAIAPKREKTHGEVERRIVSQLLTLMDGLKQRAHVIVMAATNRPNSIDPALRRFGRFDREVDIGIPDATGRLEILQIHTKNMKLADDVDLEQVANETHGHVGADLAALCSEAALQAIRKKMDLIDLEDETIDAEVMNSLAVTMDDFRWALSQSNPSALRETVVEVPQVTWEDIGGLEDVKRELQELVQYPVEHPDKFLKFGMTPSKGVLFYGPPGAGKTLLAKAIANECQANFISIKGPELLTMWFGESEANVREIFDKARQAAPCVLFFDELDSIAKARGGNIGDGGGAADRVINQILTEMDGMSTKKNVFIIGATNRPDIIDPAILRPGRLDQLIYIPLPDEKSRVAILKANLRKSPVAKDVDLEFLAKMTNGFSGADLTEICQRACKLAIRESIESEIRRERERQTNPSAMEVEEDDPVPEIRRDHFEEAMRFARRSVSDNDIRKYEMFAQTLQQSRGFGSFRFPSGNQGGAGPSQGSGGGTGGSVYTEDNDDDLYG
Beta Lactamase, sequence (Q932Y6 whole entry): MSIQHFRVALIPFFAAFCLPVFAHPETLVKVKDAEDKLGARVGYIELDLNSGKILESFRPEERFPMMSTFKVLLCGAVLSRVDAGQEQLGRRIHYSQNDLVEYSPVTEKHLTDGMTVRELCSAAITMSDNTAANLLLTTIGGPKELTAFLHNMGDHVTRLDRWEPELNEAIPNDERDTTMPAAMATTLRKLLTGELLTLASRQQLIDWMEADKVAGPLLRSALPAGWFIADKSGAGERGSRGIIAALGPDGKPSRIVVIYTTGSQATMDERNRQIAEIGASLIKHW
Paired box protein Pax-8, sequence (Q06710 whole entry): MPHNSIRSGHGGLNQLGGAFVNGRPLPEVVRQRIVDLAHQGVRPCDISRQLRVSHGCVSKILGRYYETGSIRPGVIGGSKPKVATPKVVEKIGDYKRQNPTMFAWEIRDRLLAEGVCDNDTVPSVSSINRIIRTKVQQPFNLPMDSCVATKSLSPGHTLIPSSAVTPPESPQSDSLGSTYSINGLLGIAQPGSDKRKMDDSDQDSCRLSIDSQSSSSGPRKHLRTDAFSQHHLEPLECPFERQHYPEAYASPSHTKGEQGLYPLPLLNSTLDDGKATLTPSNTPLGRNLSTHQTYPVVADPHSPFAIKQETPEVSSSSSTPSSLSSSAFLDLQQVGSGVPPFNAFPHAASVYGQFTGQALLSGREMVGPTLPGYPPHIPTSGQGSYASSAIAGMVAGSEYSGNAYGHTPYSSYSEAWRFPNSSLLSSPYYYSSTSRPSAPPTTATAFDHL
Nucleotide-binding oligomerization domain-containing protein 2, sequence (Q9HC29 whole entry, the tested form may be a part): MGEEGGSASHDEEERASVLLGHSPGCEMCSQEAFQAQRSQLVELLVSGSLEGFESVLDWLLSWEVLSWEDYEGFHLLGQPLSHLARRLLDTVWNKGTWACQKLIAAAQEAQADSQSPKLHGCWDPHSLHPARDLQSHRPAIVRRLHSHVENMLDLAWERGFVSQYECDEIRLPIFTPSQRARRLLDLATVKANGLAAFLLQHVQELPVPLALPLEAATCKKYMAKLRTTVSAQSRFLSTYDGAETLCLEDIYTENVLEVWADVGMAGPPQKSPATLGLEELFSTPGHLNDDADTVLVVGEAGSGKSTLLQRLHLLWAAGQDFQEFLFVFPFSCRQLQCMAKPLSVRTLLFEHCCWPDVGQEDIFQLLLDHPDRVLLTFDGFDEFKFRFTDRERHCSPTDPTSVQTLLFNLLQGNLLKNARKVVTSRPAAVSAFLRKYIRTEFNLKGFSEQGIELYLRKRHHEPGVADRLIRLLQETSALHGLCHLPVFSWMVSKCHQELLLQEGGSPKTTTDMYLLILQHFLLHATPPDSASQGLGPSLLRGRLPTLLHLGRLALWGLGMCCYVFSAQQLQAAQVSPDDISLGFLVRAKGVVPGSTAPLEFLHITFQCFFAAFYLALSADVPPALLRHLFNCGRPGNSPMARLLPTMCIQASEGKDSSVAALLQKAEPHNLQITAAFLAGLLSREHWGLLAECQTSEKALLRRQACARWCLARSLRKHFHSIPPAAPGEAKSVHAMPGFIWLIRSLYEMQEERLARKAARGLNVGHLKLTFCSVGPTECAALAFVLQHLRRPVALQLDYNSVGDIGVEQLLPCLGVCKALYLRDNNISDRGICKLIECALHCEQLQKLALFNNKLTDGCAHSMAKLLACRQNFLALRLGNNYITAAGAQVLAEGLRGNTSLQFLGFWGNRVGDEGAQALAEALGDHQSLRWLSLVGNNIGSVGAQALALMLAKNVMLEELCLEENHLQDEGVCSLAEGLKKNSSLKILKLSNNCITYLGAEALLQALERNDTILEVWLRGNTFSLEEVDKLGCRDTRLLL
Ras and Rab interactor 1/Tyrosine-protein kinase ABL1, sequence (P00519 whole entry): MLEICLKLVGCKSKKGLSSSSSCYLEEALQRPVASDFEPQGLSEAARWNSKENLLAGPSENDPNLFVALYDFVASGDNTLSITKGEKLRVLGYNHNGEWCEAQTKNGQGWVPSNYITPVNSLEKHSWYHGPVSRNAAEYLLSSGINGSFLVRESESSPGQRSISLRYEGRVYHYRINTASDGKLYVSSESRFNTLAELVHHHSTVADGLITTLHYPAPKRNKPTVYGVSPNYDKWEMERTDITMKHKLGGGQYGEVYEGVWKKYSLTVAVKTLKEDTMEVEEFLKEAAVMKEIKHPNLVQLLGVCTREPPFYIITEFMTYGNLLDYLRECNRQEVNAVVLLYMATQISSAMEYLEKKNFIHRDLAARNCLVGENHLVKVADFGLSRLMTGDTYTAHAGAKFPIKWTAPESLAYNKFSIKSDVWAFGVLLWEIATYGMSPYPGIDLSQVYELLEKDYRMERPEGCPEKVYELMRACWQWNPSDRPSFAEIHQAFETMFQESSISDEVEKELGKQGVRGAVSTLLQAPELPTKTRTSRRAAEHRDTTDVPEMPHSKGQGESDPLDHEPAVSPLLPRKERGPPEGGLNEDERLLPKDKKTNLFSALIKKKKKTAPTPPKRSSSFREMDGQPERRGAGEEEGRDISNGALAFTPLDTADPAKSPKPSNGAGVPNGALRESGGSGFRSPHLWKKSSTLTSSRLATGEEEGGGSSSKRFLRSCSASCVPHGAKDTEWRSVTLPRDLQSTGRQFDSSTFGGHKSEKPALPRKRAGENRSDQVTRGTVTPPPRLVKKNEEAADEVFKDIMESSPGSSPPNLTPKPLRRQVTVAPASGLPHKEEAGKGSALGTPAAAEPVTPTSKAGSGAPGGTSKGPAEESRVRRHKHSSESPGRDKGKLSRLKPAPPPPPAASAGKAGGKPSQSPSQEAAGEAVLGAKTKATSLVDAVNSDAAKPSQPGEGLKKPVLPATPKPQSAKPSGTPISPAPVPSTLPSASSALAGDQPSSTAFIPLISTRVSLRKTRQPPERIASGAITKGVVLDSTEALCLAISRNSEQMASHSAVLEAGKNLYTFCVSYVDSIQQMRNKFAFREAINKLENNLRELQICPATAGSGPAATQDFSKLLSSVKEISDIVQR
Ras and Rab interactor 1/Tyrosine-protein kinase ABL1, sequence (Q13671 whole entry): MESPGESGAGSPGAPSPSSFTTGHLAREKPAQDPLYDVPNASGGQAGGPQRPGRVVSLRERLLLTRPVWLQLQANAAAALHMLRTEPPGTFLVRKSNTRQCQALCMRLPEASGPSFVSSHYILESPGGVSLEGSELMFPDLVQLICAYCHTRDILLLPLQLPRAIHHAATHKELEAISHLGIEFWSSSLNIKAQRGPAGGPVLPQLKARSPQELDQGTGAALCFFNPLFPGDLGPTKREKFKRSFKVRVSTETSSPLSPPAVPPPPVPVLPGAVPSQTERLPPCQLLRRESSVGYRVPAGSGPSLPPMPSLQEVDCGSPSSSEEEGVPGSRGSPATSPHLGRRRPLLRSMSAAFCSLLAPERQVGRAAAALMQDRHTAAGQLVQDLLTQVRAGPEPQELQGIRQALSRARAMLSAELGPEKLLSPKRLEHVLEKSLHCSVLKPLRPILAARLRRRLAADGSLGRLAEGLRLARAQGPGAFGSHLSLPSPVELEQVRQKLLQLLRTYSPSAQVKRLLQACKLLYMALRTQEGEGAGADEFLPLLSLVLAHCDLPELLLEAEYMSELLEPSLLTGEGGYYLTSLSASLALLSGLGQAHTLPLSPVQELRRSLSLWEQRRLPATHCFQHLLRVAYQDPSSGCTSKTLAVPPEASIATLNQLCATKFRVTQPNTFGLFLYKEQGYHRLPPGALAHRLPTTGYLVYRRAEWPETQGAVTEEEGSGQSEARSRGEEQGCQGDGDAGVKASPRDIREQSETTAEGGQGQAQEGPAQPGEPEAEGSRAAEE
Glucose-6-phosphate 1-dehydrogenase, sequence (P11413 whole entry): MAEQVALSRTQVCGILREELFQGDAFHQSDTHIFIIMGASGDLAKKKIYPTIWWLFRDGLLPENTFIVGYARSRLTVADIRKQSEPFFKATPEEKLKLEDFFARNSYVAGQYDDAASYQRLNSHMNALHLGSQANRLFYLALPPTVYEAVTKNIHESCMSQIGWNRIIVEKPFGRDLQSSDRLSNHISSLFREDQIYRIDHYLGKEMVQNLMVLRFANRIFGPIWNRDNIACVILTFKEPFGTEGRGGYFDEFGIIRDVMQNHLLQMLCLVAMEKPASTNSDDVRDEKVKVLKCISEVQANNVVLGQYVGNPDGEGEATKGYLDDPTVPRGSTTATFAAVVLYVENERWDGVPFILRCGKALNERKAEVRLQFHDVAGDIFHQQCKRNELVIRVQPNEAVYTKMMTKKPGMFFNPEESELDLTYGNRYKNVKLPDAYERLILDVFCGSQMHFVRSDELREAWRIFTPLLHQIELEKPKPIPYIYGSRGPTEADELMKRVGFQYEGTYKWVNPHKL

Compound: Cn1c(=O)[nH]c(=O)c2c1nc([N+](=O)[O-])n2Cc1ccccc1
- AC50 [1]: 7.36 µM (active)
- CC50 [2]: 6.75 µM (active)
- IC50 [3]: 3.5 µM (active)
- AC50 [4]: 18.3 µM (active)
- IC50 [5]: 0.748 µM (active)
- AC50 [6]: 4.52 µM (active)
- IC50 [7]: 13.7 µM (active)
- IC50 [8]: > 49.8 µM (inactive)
- IC50 [9]: 47.9 µM (inactive)
- AC50 [10]: 5.91 µM (active)
- IC50 [11]: > 25 µM (inactive)
- IC50 [12]: 0.785 µM (active)
- AC50 [13]: 3.81 µM (active)
- CC50 [14]: 3.23 µM (active)
- IC50 [15]: 2.16 µM (active)
- AC50 [16]: 1.9 µM (active)

Compound: O=C(NC1(O)C(=O)c2ccccc2C1=O)c1c(Cl)cccc1Cl
- IC50 [17]: 21 µM (inactive)
- IC50 [18]: > 50 µM (not active)
- IC50 [19]: > 50 µM (not active)

Compound: CCN(c1ccccc1)c1cc2ccccc2c(=O)[nH]1
- AC50 [20]: 5.45 µM (active)
